Results: patent US20250368686A1, “PEPTIDE DRUGS FOR S[…] D[…] BLOCKING HOMO- AND HETERO-DIMERIZATION OF OPIOID RECEPTORS” (OKINAWA INSTITUTE OF SCIENCE AND TECHNOLOGY SCHOOL …, priority 2022, published 2025)
Where a name gives a salt, the structure may show the parent alone. Read-outs that look alike come from different tables or passages of the source. Where no end group is shown, it is not given here.

Key:
[1] = molecular target: T1, DOR and MOR (DM) heterodimers (Rattus norvegicus, UniProt P33535); assay: DM heterodimerisation, two-colour single-molecule imaging in CHO-K1 cells (colocalisation index, heterodimer lifetime); assay type: cell-based; conditions: for DM colocalisation, competition by expressed SNAPf-tagged TM peptides: CHO-K1 cells expressing DOR-mGFP, MOR-Halo and the TM peptide
T1 construct: expressed in transfected cells; host or cells: CHO-K1 cells stably co-expressing DOR and MOR

MOR [2] = assay type: cell-based, rat; conditions: D- and K-cells
MOR [3] = molecular target: T2, MOR (Rattus norvegicus, UniProt P33535); assay type: cell-based; parameters: expressed in transfected cells; host or cells: CHO-K1 (A10, A13); T24 (A16); CHO-K1 stably expressing Gqi5 (A19); conditions: CHO-K1 cells, addition alone
MOR [4] = molecular target: T2, MOR; assay type: cell-based; parameters: expressed in transfected cells; host or cells: CHO-K1 (A10, A13); T24 (A16); CHO-K1 stably expressing Gqi5 (A19); conditions: T24 cells, addition alone
DOR [5] = molecular target: T3, DOR (Rattus norvegicus, UniProt P33533); assay type: cell-based; parameters: fluorescent tag protein (not specified for this assay); expressed in transfected cells; host or cells: CHO-K1 (D cells, MD cells); conditions: for DOR internalisation, effect of agonist: 0.5 μM agonist, D cells and MD cells
MOR [6] = molecular target: T2, MOR; assay type: cell-based; parameters: fluorescent tag protein (not specified for this assay); expressed in transfected cells; host or cells: CHO-K1 (M cells, MD cells); for Ca2+ mobilisation CHO-K1 stably expressing Gqi5; conditions: 0.5 μM agonist; for MOR internalisation: 60-min observations
MOR [7] = molecular target: T2, MOR; assay type: cell-based; parameters: fluorescent tag protein (not specified for this assay); expressed in transfected cells; host or cells: CHO-K1 (M cells, MD cells); for Ca2+ mobilisation CHO-K1 stably expressing Gqi5
DOR [8] = molecular target: T3, DOR; assay type: cell-based; parameters: expressed in transfected cells; host or cells: CHO-K1 (A11, A14); T24 (A17); CHO-K1 stably expressing Gqi5 (A20); conditions: CHO-K1 cells, addition alone
DOR [9] = molecular target: T3, DOR; assay type: cell-based; parameters: expressed in transfected cells; host or cells: CHO-K1 (A11, A14); T24 (A17); CHO-K1 stably expressing Gqi5 (A20); conditions: T24 cells, addition alone
T24 cells = assay: LDH cytotoxicity assay in T24 cells; assay type: cell-based, human; conditions: 48-h exposure, 50, 100 and 200 μM
Protocol: (§1) Cytotoxicity was measured by subtracting LDH content in remaining viable cells from total LDH in untreated controls.

hippocampal neurons = assay: LDH cytotoxicity assay in primary culture of hippocampal neurons; assay type: cell-based; conditions: hippocampal neurons DIV8, DIV12, DIV14; 48, 96 and 144-hour exposures, 100 μM
Protocol: as §1
Treatments of neurons with Trition-100 (1%) and DMSO (10%) for 48 h were used as positive controls.

T3 sequence (P33533 whole entry): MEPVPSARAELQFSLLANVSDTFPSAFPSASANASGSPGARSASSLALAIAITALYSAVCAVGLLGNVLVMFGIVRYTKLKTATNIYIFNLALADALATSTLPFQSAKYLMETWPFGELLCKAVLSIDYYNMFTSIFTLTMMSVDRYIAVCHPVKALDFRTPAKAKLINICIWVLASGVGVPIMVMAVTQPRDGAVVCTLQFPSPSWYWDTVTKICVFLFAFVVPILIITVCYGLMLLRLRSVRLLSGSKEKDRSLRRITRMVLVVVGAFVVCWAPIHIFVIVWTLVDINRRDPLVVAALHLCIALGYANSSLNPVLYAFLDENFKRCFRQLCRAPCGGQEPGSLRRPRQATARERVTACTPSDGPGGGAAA
T2 sequence (P33535 whole entry): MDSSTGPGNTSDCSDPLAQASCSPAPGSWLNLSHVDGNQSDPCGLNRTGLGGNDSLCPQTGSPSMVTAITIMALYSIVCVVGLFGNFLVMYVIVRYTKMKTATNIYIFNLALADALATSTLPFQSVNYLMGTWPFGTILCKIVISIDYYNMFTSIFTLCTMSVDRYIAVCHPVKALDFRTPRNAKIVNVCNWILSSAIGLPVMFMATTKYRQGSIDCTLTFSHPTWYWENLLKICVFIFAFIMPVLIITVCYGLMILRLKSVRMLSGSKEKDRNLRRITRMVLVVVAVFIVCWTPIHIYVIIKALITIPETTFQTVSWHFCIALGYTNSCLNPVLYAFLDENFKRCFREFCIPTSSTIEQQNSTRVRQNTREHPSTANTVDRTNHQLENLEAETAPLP
T1 sequence (P33535 whole entry, one chain of several): as the sequence (P33535 whole entry) above

Q: Which results are given for C[C@@H](NC(=O)[C@@H](N)Cc1ccc(O)cc1)C(=O)NCC(=O)N(C)[C@@H](Cc1ccccc1)C(=O)NCCO [DAMGO, [D-Ala^2, N-Mc-Phet, Gly^5-ol]-enkephalin acetate salt]?
A: DM heterodimer lifetime, effect of agonist ([1]; 0.5 μM agonist, within 5 min after addition): prolonged; DM colocalisation index, effect of agonist ([1]; 0.5 μM agonist, within 5 min after addition, agonist-bound MOR with DOR): higher; intracellular Ca2+ mobilisation (MOR [2]): not; Fraction of internalized molecules (MOR [3]): 28.1 ± 1.7 %; Residency time of internalized molecules (MOR [3]): 11.3 ± 1.9 min; Fraction of internalized molecules (MOR [4]): 26.3 ± 1.1 %; Residency time of internalized molecules (MOR [4]): 6.5 ± 1.2 min; DOR internalisation (DOR [5]; MD cells, 0.5 μM MOR agonist, 4.3% without DAMGO addition): 13.3%; MOR internalisation (MOR [6]; M cells): 31.8%; MOR internalisation (MOR [6]; MD cells): 51.1%; intracellular Ca2+ mobilisation (MOR [7]; M-cells): induced; intracellular Ca2+ mobilisation (MOR [7]; MD-cells, compared with M-cells): greatly enhanced

Q: For C=CCN1C[C@H](C)N([C@H](c2ccc(C(=O)N(CC)CC)cc2)c2cccc(OC)c2)C[C@H]1C [SNC-80], which “Fraction of internalized molecules” value (DOR [8]) is on record?
A: The value was 61.6 ± 1.7 %.

Q: And the “Residency time of internalized molecules” value (DOR [8])?
A: The value was 10.8 ± 0.9 min.

Q: And the “Fraction of internalized molecules” value (DOR [9])?
A: Its value is 56.5 ± 1.9 %.

Q: And the “Residency time of internalized molecules” value (DOR [9])?
A: The value was 8.9 ± 1.0 min.

Q: What about the “DOR internalisation, effect of agonist” value (DOR [5]) of the same compound?
A: The value was “induced dramatic DOR internalisation”.

Q: What about the “MOR internalisation, effect of agonist” value (MOR [6]; M cells and MD cells) of the same compound?
A: The value was “induced”.

Q: Which “DOR internalisation, effect of agonist” value (DOR [5]) does the source give for CN1CC[C@]23c4c5ccc(O)c4O[C@H]2[C@@H](O)C=C[C@H]3[C@H]1C5 [morphine] here?
A: The value was “hardly affected”.

Q: With “LSHVDGNQSDPCGLNRTGLGGNDSLCPQTG [Mpep(32-61)MD]” as the compound, how does the DM colocalisation index ([1]; soluble peptides, 10 μM final, added to cells stably co-expressing WT-DOR and MOR) read?
A: Its DM colocalisation index is “largest reductions”.

Q: How did the “DM colocalisation, competition by expressed SNAPf-tagged TM peptides” value [1] turn out when “MOR's N-term+TM1: aa53-99 sequence of MOR conjugated with the SNAPf tag, expressed in cells (NDSLCPQTGSPSMVTAITIMALYSIVCVVGLFGNFLVMYVIVRYTKM; cysteine pairing not given here; also: conjugated with SNAPf tag)” was run?
A: Its value is “competes with DM dimers more effectively”.

Q: With “MOR's TM1: MOR's TM1 (aa71-94) conjugated with the SNAPf tag, expressed in cells (IMALYSIVCVVGLFGNFLVMYVIV; also: conjugated with SNAPf tag)” as the compound, how does the “DM colocalisation, competition by expressed SNAPf-tagged TM peptides” value [1] read?
A: Its value is “lowered the DM colocalisation”.

Q: How did the “cytotoxicity (LDH)” value (T24 cells) turn out when SDTFPSAFPSASANASGSPGARS [Dpep(20-42)DM] was run?
A: The value was “no toxicity”.

Q: And the “cytotoxicity (LDH)” value (hippocampal neurons)?
A: The value was “little toxicity”.
